The substances below were run on C57BL6/J 8-week-old male mice (assay: Immunization of healthy mice with single peptides in adjuvant, echocardiography of heart functionality). Settings: s.c. 100 μg peptide in CFA day 0, boost in IFA day 21; echocardiography at 2, 5 and 9 weeks; versus CTR- (only CFA).
Assay type: in vivo, mouse
Description: C57BL6/J 8-week-old male mice were screened at baseline for heart functionality, via echocardiography, and randomly divided into 5 experimental groups. Mice belonging to control group (CTR-, only CFA) were injected subcutaneously (immunized, but without antigen: negative control) with 100 μl Complete Freud's Adjuvant (CFA) at day 0 and boosted with 100 μl of Incomplete Freud's Adjuvant (IFA) on day 21. Mice belonging to group 3 (CTR+) were injected subcutaneously (immunized, known antigen: positive control) with 100 μg of each of the three peptides (SEQ ID NOs. 15-17) derived from beta-adrenergic receptor and listed in the Table of FIG. 4, emulsified in Complete Freud's Adjuvant (CFA) at day 0 and boosted with 100 μg of the three peptides emulsified in Incomplete Freud's Adjuvant (IFA) on day 21. Mice belonging to group 4_A (Peptide 4_A) were injected subcutaneously (immunized) with 100 μg of the peptide of SEQ ID NO. 1, derived from 14-3-3 protein, emulsified in Complete Freud's Adjuvant (CFA) at day 0 and boosted with 100 μg of each of the three peptides emulsified in Incomplete Freud's Adjuvant (IFA) on day 21. Mice belonging to group 4_B (Peptide 4_B) were injected subcutaneously (immunized) with 100 μg of the peptide of SEQ ID NO. 5, derived from Snrpd1 protein, emulsified in Complete Freud's Adjuvant (CFA) at day 0 and boosted with 100 μg of each of the three peptides emulsified in Incomplete Freud's Adjuvant (IFA) on day 21. Mice belonging to group 4_C (Peptide 4_C) were injected subcutaneously (immunized) with 100 μg of the peptide of SEQ ID NO. 14, derived from Atp5o protein, emulsified in Complete Freud's Adjuvant (CFA) at day 0 and boosted with 100 μg of each of the three peptides emulsified in Incomplete Freud's Adjuvant (IFA) on day 21. On day 0 and day 2, all the mice were intraperitoneally injected with 200 ng of Pertussis Toxin. Heart functionality of all mice was analyzed via echocardiography at 2, 5 and 9 weeks after the first subcutaneous injection. In FIG. 7, the results of echocardiography analysis of cardiac functionality parameters % FS and % EF of C57BL6/J mice immunized with the peptide of SEQ ID NO. 1 (14-3-3 protein), the peptide of SEQ ID NO. 5 (Snrpd1 protein), or the peptide of SEQ ID NO. 14 (Atp5o protein) are shown. […] Data are plotted as mean±SEM, (n=4-6). Two-way ANOVA and Tukey's multiple comparison test with matching subjects. * p<0.05, ** p<0.01, ***p<0.001.

Substance | % EF | % FS
Peptide 4_A: peptide of SEQ ID NO. 1, derived from 14-3-3 protein (LGLALNFSVFYYEIL; listed as Homo sapiens) | significantly reduced | significantly reduced
Peptide 4_B: peptide of SEQ ID NO. 5, derived from Snrpd1 protein (EPVQLETLSIRGNNIRYFILPDSLP; listed as Homo sapiens) | significantly reduced | significantly reduced
Peptide 4_C: peptide of SEQ ID NO. 14, derived from Atp5o protein (LTANLMNLLAENGRL; listed as Mus musculus) | significantly reduced | significantly reduced

Reference: patent US20220283158A1, “METHOD OF IDENTIFYING PEPTIDE ANTIGENS AND USES THEREOF” (HUMANIRAS MIRASOLE S.P.A., priority 2019, published 2022)
